Source: paper PMC12564639, “Discovery of a Novel Anticoagulant Cystine Knot Peptide from Spider Venom Gland Transcriptome” (International Journal of Molecular Sciences, 2025)
Peptide text beside a SMILES is read from it.

Key:
[1] = biological target: T1, Human Activated Protein C (APC-1.0) (Homo sapiens, UniProt P04070); test: APC activity by chromogenic substrate assay; assay type: biochemical; conditions: APC 0.7145 μM, S-2366 402.1 μM, PBS, 37 °C, pre-incubation 10 min, n = 3
T1 construct: purchased Enzyme Research Laboratories, Inc., South Bend, IN, USA APC-1.0
Description: Human Activated Protein C (APC-1.0) was purchased from Enzyme Research Laboratories, Inc., South Bend, IN, USA. […] Activated Partial Thromboplastin Time (APTT) Test Kit (TC0306) was bought from Senkey Biotechnology Co., Ltd., Kunming, China. Prothrombin Time (PT) Test Kit (GMS10176) was purchased from GENMED Scientifics Inc., Shanghai, China. Streptavidin (SA) Biosensors (18-5019) were obtained from Sartorius AG, Göttingen, Lower Saxony, Germany. PBS (21-040-CVC) was bought from Corning Incorporated, Corning, NY, USA. Tween-20 (BS361B) was purchased from Biosharp Life Sciences, Hefei, Anhui, China. Trifluoroacetic acid (TFA, T818778-500ml, CAS: 76-05-1) and CaCl2 (C805225) were obtained from Macklin Biochemical Co., Ltd., Shanghai, China. L-oxidized glutathione (GSSG, V900363), Rose Bengal Dye (content 95%, CAS: 632-69-9, 330000-5G), and HEPES (V900477-500G) were purchased from Sigma-Aldrich LLC, St. Louis, MO, USA (Shanghai branch: Sigma-Aldrich Shanghai Trading Co., Ltd., Shanghai, China). […]
APC (0.7145 μM) was pre-incubated with varying concentrations of GC38 (0.1, 1 and 10 μM) in PBS at 37 °C for 10 min. […] Kinetic measurements were performed at 37 °C using a Multi-Mode Microplate Reader (BioTek Synergy™ H1, Winooski, VT, USA) with absorbance at 405 nm recorded every 10 s for 30 min. […]

[2] = test system: plasma clotting (coagulation pathway); test: Plasma recalcification time (PRT); assay type: biochemical; conditions: fresh plasma, 10 min at 37 °C, n = 3
Method: Plasma recalcification time (PRT) was used to evaluate the effects of GC38 on the coagulation pathway. Fresh plasma was incubated with GC38 (0.1, 1, and 10 µM) for 10 min at 37 °C. After incubation, the plasma was mixed with an equal volume of 25 mM calcium chloride solution, and the timer was immediately started. The time required for plasma clot formation was recorded. The group treated with PBS served as the control. Each concentration was tested in triplicate, and the average value and PRT at maximum reactive velocity were reported.

[3] = test system: murine macrophage (RAW264.7); test: Cytotoxicity (CCK-8), RAW264.7; assay type: cell-based; parameters: cytotoxicity RAW264.7: dose or concentration left out as unconfirmed; conditions: 24 h, n = 3
Method: The cytotoxicity of GC38 was evaluated in human embryonic kidney cells (HEK293T), human keratinocytes (HaCaT), and murine macrophage (RAW264.7) cell lines. The cells were from Kunming Cell Bank, Chinese Academy of Sciences. HEK293T and HaCaT cells were cultured in DMEM supplemented with 10% fetal bovine serum (FBS) and 1% penicillin-streptomycin, and RAW264.7 cells were maintained in RPMI 1640 containing 10% FBS and 1% penicillin–streptomycin, with all cell lines incubated at 37 °C under 5% CO2. For cytotoxicity assessment, cells were seeded at a density of 1 × 10^5 cells per well in 96-well plates and incubated for 12 h. […] After 24 h incubation, cell viability was determined using the CCK-8 assay (10 μL/well). Absorbance was measured at 450 nm using a multi-mode microplate reader (BioTek Synergy™ H1, Winooski, VT, USA). Untreated cells and cells treated with 10% DMSO served as negative and positive controls, respectively. Viability percentages were calculated relative to the untreated control. All experiments were conducted in triplicate, and data were expressed as mean ± SEM.

[4] = test system: stasis-induced deep vein thrombosis in mice; test: Stasis-induced deep vein thrombosis (DVT) model; assay type: in vivo, C57BL/6J mice
Method: The C57BL/6J mice (male, 6–8 weeks old) were purchased from Beijing Vital River Laboratory Animal Technology Co., Ltd. (Beijing, China). All animal studies were performed under the approval of the Ethics Committee of the Laboratory Animal Welfare of the Kunming Institute of Zoology, Chinese Academy of Sciences (IACUC-RE-2025-03-010).
Male C57BL/6J mice (6–8 weeks old, n = 10 per group) were randomized to receive intravenous injections of PBS (vehicle control), GC38 (2 or 4 mg/kg), or heparin sodium (1000 U/kg) for the establishment of stasis-induced DVT models. […] Briefly, mice were anesthetized, and the IVC was exposed through a midline abdominal incision. […] Finally, the abdominal wall was closed carefully. At 24 h post-ligation, the IVC was resected, and thrombus formation was quantified by measuring the weight of the thrombi (n = 5). HE staining analysis of thrombus sections was performed to evaluate the extent of thrombosis (n = 5).

T1 sequence (P04070 212-461 limits assumed): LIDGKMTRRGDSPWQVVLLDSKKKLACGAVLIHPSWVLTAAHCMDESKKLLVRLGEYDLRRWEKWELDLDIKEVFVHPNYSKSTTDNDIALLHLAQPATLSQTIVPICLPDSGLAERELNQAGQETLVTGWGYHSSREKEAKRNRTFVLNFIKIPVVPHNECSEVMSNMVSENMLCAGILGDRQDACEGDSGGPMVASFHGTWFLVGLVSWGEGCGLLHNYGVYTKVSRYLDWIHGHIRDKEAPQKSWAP
T1 sequence (P04070 43-197 limits assumed): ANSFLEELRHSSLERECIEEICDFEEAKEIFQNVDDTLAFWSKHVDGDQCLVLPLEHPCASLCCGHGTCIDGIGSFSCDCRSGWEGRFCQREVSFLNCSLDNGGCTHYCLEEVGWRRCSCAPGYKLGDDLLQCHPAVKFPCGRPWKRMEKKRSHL

CSCC[C@@H]1NC(=O)[C@H](CC(N)=O)NC(=O)CNC(=O)CNC(=O)[C@H](Cc2c[nH]cn2)NC(=O)[C@H](CCCNC(=N)N)NC(=O)CNC(=O)[C@@H]2CSSC[C@@H]3NC(=O)[C@H](CCCNC(=N)N)NC(=O)[C@H](C)NC(=O)CNC(=O)[C@H](CCCCN)NC(=O)CNC(=O)[C@H](CO)NC(=O)[C@@H](NC(=O)CN)CSSC[C@H](NC(=O)[C@H](CSSC[C@@H](C(=O)N[C@@H](CCC(=O)O)C(=O)N[C@@H](Cc4c[nH]c5ccccc45)C(=O)N[C@@H](CC(N)=O)C(=O)N[C@@H](Cc4c[nH]c5ccccc45)C(=O)N[C@@H](CCCCN)C(=O)N[C@H](C(=O)NCC(=O)O)[C@@H](C)O)NC(=O)[C@H](CO)NC(=O)[C@H](CCCCN)NC(=O)[C@H](Cc4ccc(O)cc4)NC1=O)NC(=O)[C@H](CCCCN)NC(=O)[C@H](CO)NC(=O)[C@@H]1CCCN1C(=O)[C@H](C)NC3=O)C(=O)N[C@@H](CO)C(=O)NCC(=O)N[C@@H](CC(C)C)C(=O)N[C@@H](CO)C(=O)N2 [GC38] (HELM PEPTIDE1{G.C.S.G.K.G.A.R.C.A.P.S.K.C.C.S.G.L.S.C.G.R.H.G.G.N.M.Y.K.S.C.E.W.N.W.K.T.G}$PEPTIDE1,PEPTIDE1,2:R3-15:R3|PEPTIDE1,PEPTIDE1,9:R3-20:R3|PEPTIDE1,PEPTIDE1,14:R3-31:R3$$$V2.0)
activity of APC at maximum catalytic velocity (Vmax) ([1]; GC38 10 μM, 405 nm, versus PBS control, mean): 171%
APC activity, concentration dependence ([1]; GC38 0.1-10 μM, absorbance 405 nm every 10 s for 30 min): enhanced APC activity in a concentration-dependent manner
PRT clotting time versus negative control (time to Vmax) ([2]; GC38 10 μM, then 25 mM CaCl2, mean): 1.4 fold
clotting time in plasma (PRT), dose response ([2]; GC38 0.1-10 μM, then equal volume 25 mM CaCl2): prolonged clotting time in plasma in a dose-responsive manner
cell viability RAW264.7 ([3]; 50 μM, serum-free medium, CCK-8, 450 nm, relative to untreated control): greater than 95%
cytotoxicity RAW264.7 ([3]; CCK-8): negligible cytotoxicity
reduction of thrombus wet weight versus vehicle control ([4]; GC38 4 mg/kg i.v., 24 h after IVC ligation, n = 5 per group): 64.0%
thrombus area (histology) ([4]; HE staining, IVC sections, 24 h after ligation, n = 5): decrease in thrombus area
